Laboratory results taken from patent publication US20160175318A1, “COMPOSITIONS COMPRISING ANTIBACTERIAL AGENT AND TAZOBACTAM” (WOCKHARDT LIMITED, priority 2013, published 2016).
Like-named read-outs stand apart in the source and are kept apart here.

Columns and labels:
Assay type in all cases: cell-based
E. cloacae M-20 = experiment: MIC by agar dilution (CLSI) against highly resistant ESBL strain
Experimental: (§1) The results on activity of cefepime and other cephalosporin antibacterial agents in combination with tazobactam against highly resistant ESBL strains are given Table 1. In a typical study, overnight grown bacterial cultures were diluted appropriately and inoculated on the agar media containing doubling dilutions of the antibiotic. Observation for growth or no growth was performed after 16-20 h of incubation at 35±2° C. in ambient air. The overall procedure was performed as per Clinical and Laboratory Standards Institute (CLSI) recommendations. This experimental was followed for Examples 2-4 and 6 below (Table 2-4 and 7).

E. coli M50 [1] = experiment: as above
Experimental: as §1

K. pneumoniae M150 = experiment: as above; conditions: Klebsiella pneumoniae
Experimental: as §1

E. coli 7MP [2] = experiment: as above
Experimental: as §1

E. coli B-89 [3] = experiment: as above
Experimental: as §1

E. coli B-123 = experiment: Quantitative drug diffusion assay (disc, zone of inhibition, CLSI); set-up: key to Interpretation of zone as per CLSI recommendations: R: Resistant; I: Intermediate; S: Sensitive (Interpretation as per CLSI recommendations, 2010)
Text: (§2) Activity of cefepime in combination with tazobactam and various penicillins in combination with respective ESBL inhibitors was also investigated against highly resistant ESBL strains in quantitative drug diffusion assay performed as per CLSI recommendations (Clinical and Laboratory Standards Institute (CLSI), performance Standards for Antimicrobial Susceptibility Testing, 20th Informational Supplement, M 100-S20, Volume 30, No. 1, 2010).
(§3) In a typical study, overnight grown bacterial cultures after appropriate dilution were seed inoculated in the molten, cooled agar media and plates poured. Antibiotics containing 6 mm diameter discs were place on the top of the agar surface. Zone of inhibition based observation was performed after 16-18 h of incubation at 35±2° C. in ambient air. The overall procedure was performed as per CLSI recommendations (Table 5 and 6). These assays are routinely used in determining possibility of treating a particular infection using antibiotic and/or their combinations. For example, in case of treating an infection caused by E. coli (M138) using Augmentin® [commercially available combination: Amoxicillin (500 mg)+Clavulanic acid (125 mg)], the zone inhibition values need to be in the sensitive (S) range.

E. coli M50 [4] = experiment: as above; set-up: key to Interpretation of zone as per CLSI recommendations: R: Resistant; I: Intermediate; S: Sensitive (Interpretation as per CLSI recommendations, 2010)
Text: as §2, §3

E. coli S-112 = experiment: as above; set-up: key to Interpretation of zone as per CLSI recommendations: R: Resistant; I: Intermediate; S: Sensitive (Interpretation as per CLSI recommendations, 2010)
Text: as §2, §3

E. coli M-138 = experiment: as above; set-up: key to Interpretation of zone as per CLSI recommendations: R: Resistant; I: Intermediate; S: Sensitive (Interpretation as per CLSI recommendations, 2010)
Text: as §2, §3

E. coli 7MP [5] = experiment: as above; set-up: key to Interpretation of zone as per CLSI recommendations: R: Resistant; I: Intermediate; S: Sensitive (Interpretation as per CLSI recommendations, 2010)
Text: as §2, §3

E. coli B-89 [6] = experiment: as above; set-up: key to Interpretation of zone as per CLSI recommendations: R: Resistant; I: Intermediate; S: Sensitive (Interpretation as per CLSI recommendations, 2010)
Text: as §2, §3

[7] = E. cloacae M-20, with Tazobactam 4 mcg
[8] = E. cloacae M-20, with Tazobactam 8 mcg
[9] = M150, K. pneumoniae M150, with Tazobactam 4 mcg, read-out: MIC
[10] = M150, K. pneumoniae M150, with Tazobactam 8 mcg, read-out: MIC
[11] = E. coli 7MP, with Tazobactam 4 mcg
[12] = E. coli 7MP, with Tazobactam 8 mcg
[13] = E. coli B-89, with Tazobactam 4 mcg
[14] = E. coli B-89, with Tazobactam 8 mcg
[15] = ESBL inhibitor 0 mcg (antibiotic alone)
[16] = Table 5, with Clavulanic acid 10 mcg
[17] = Table 6, with Clavulanic acid 10 mcg
[18] = Table 5, with Tazobactam 10 mcg
[19] = Table 6, with Tazobactam 10 mcg

CC1(C)S[C@@H]2[C@H](NC(=O)[C@H](N)c3ccc(O)cc3)C(=O)N2[C@H]1C(=O)O [Amoxicillin]
MIC (E. cloacae M-20; [7]): >64 µg/mL
MIC (E. cloacae M-20; [8]): >64 µg/mL
MIC (E. cloacae M-20; Enterobacter cloacae, M20, 20 h): > 128 µg/mL
MIC (E. coli M50 [1]; Escherichia coli, M50, 20 h, Tazobactam 0 mcg (antibiotic alone)): > 128 µg/mL
MIC (E. coli M50 [1]; with Tazobactam 4 mcg): >64 µg/mL
MIC (E. coli M50 [1]; with Tazobactam 8 mcg): >64 µg/mL
MIC (K. pneumoniae M150; M150): > 128 µg/mL
MIC (K. pneumoniae M150; [9]): > 64 µg/mL
MIC (K. pneumoniae M150; [10]): > 64 µg/mL
MIC (E. coli 7MP [2]; [11]): >64 µg/mL
MIC (E. coli 7MP [2]; [12]): >64 µg/mL
MIC (E. coli 7MP [2]; Escherichia coli, 7MP, 20 h): > 128 µg/mL
MIC (E. coli B-89 [3]; [13]): >64 µg/mL
MIC (E. coli B-89 [3]; [14]): >64 µg/mL
MIC (E. coli B-89 [3]; Escherichia coli, B89, 20 h): > 128 µg/mL
Zone of Inhibition (E. coli B-123; [15]): Nil
Interpretation of zone as per CLSI recommendations (E. coli B-123; Table 5, ESBL inhibitor 0 mcg): (R)
Interpretation of zone as per CLSI recommendations (E. coli B-123; [16]): (R)
Interpretation of zone as per CLSI recommendations (E. coli B-123; Table 6, ESBL inhibitor 0 mcg): (R)
Interpretation of zone as per CLSI recommendations (E. coli B-123; [17]): (R)
Zone of Inhibition (E. coli B-123; with Clavulanic acid 10 mcg): Nil
Zone of Inhibition (E. coli M50 [4]; [15]): Nil
Interpretation of zone as per CLSI recommendations (E. coli M50 [4]; Table 5, ESBL inhibitor 0 mcg): (R)
Interpretation of zone as per CLSI recommendations (E. coli M50 [4]; [16]): (R)
Interpretation of zone as per CLSI recommendations (E. coli M50 [4]; Table 6, ESBL inhibitor 0 mcg): (R)
Interpretation of zone as per CLSI recommendations (E. coli M50 [4]; [17]): (R)
Zone of Inhibition (E. coli M50 [4]; with Clavulanic acid 10 mcg): Nil
Zone of Inhibition (E. coli S-112; [15]): Nil
Interpretation of zone as per CLSI recommendations (E. coli S-112; Table 5, ESBL inhibitor 0 mcg): (R)
Interpretation of zone as per CLSI recommendations (E. coli S-112; [16]): (R)
Interpretation of zone as per CLSI recommendations (E. coli S-112; Table 6, ESBL inhibitor 0 mcg): (R)
Interpretation of zone as per CLSI recommendations (E. coli S-112; [17]): (R)
Zone of Inhibition (E. coli S-112; with Clavulanic acid 10 mcg): Nil
Zone of Inhibition (E. coli M-138; [15]): Nil
Interpretation of zone as per CLSI recommendations (E. coli M-138; Table 5, ESBL inhibitor 0 mcg): (R)
Interpretation of zone as per CLSI recommendations (E. coli M-138; [16]): (R)
Interpretation of zone as per CLSI recommendations (E. coli M-138; Table 6, ESBL inhibitor 0 mcg): (R)
Interpretation of zone as per CLSI recommendations (E. coli M-138; [17]): (R)
Zone of Inhibition (E. coli M-138; with Clavulanic acid 10 mcg): Nil
Zone of Inhibition (E. coli 7MP [5]; [15]): Nil
Interpretation of zone as per CLSI recommendations (E. coli 7MP [5]; Table 5, ESBL inhibitor 0 mcg): (R)
Interpretation of zone as per CLSI recommendations (E. coli 7MP [5]; [16]): (R)
Interpretation of zone as per CLSI recommendations (E. coli 7MP [5]; Table 6, ESBL inhibitor 0 mcg): (R)
Interpretation of zone as per CLSI recommendations (E. coli 7MP [5]; [17]): (R)
Zone of Inhibition (E. coli 7MP [5]; with Clavulanic acid 10 mcg): Nil
Zone of Inhibition (E. coli B-89 [6]; [15]): Nil
Interpretation of zone as per CLSI recommendations (E. coli B-89 [6]; Table 5, ESBL inhibitor 0 mcg): (R)
Interpretation of zone as per CLSI recommendations (E. coli B-89 [6]; [16]): (R)
Interpretation of zone as per CLSI recommendations (E. coli B-89 [6]; Table 6, ESBL inhibitor 0 mcg): (R)
Interpretation of zone as per CLSI recommendations (E. coli B-89 [6]; [17]): (R)
Zone of Inhibition (E. coli B-89 [6]; with Clavulanic acid 10 mcg): Nil

CCN1CCN(C(=O)N[C@@H](C(=O)N[C@@H]2C(=O)N3[C@@H]2SC(C)(C)[C@@H]3C(=O)O)c2ccccc2)C(=O)C1=O [Piperacillin]
MIC (E. cloacae M-20; [7]): >64 µg/mL
MIC (E. cloacae M-20; [8]): >64 µg/mL
MIC (E. cloacae M-20; Enterobacter cloacae, M20, 20 h, E. cloacae M-20, Tazobactam 0 mcg (antibiotic alone), read-out: MIC): > 128 µg/mL
MIC (E. coli M50 [1]; Escherichia coli, 20 h, Tazobactam 0 mcg (antibiotic alone), read-out: MIC): > 128 µg/mL
MIC (E. coli M50 [1]; with Tazobactam 4 mcg): >64 µg/mL
MIC (E. coli M50 [1]; with Tazobactam 8 mcg): >64 µg/mL
MIC (K. pneumoniae M150; M150, K. pneumoniae M150, Tazobactam 0 mcg (antibiotic alone), read-out: MIC): > 128 µg/mL
MIC (K. pneumoniae M150; [9]): > 64 µg/mL
MIC (K. pneumoniae M150; [10]): > 64 µg/mL
MIC (E. coli 7MP [2]; [11]): >64 µg/mL
MIC (E. coli 7MP [2]; [12]): >64 µg/mL
MIC (E. coli 7MP [2]; Escherichia coli, 7MP, 20 h, E. coli 7MP, Tazobactam 0 mcg (antibiotic alone), read-out: MIC): > 128 µg/mL
MIC (E. coli B-89 [3]; [13]): >64 µg/mL
MIC (E. coli B-89 [3]; [14]): >64 µg/mL
MIC (E. coli B-89 [3]; Escherichia coli, B89, 20 h, E. coli B-89, Tazobactam 0 mcg (antibiotic alone), read-out: MIC): > 128 µg/mL
Zone of Inhibition (E. coli B-123; [15]): Nil
Interpretation of zone as per CLSI recommendations (E. coli B-123; Table 5, ESBL inhibitor 0 mcg): (R)
Interpretation of zone as per CLSI recommendations (E. coli B-123; [18]): (R)
Interpretation of zone as per CLSI recommendations (E. coli B-123; Table 6, ESBL inhibitor 0 mcg): (R)
Interpretation of zone as per CLSI recommendations (E. coli B-123; [19]): (R)
Zone of Inhibition (E. coli B-123; with Tazobactam 10 mcg): 13.5 mm
Zone of Inhibition (E. coli M50 [4]; [15]): Nil
Interpretation of zone as per CLSI recommendations (E. coli M50 [4]; Table 5, ESBL inhibitor 0 mcg): (R)
Interpretation of zone as per CLSI recommendations (E. coli M50 [4]; [18]): (R)
Interpretation of zone as per CLSI recommendations (E. coli M50 [4]; Table 6, ESBL inhibitor 0 mcg): (R)
Interpretation of zone as per CLSI recommendations (E. coli M50 [4]; [19]): (R)
Zone of Inhibition (E. coli M50 [4]; with Tazobactam 10 mcg): 17 mm
Zone of Inhibition (E. coli S-112; [15]): Nil
Interpretation of zone as per CLSI recommendations (E. coli S-112; Table 5, ESBL inhibitor 0 mcg): (R)
Interpretation of zone as per CLSI recommendations (E. coli S-112; [18]): (R)
Interpretation of zone as per CLSI recommendations (E. coli S-112; Table 6, ESBL inhibitor 0 mcg): (R)
Interpretation of zone as per CLSI recommendations (E. coli S-112; [19]): (R)
Zone of Inhibition (E. coli S-112; with Tazobactam 10 mcg): 14 mm
Zone of Inhibition (E. coli M-138; [15]): Nil
Interpretation of zone as per CLSI recommendations (E. coli M-138; Table 5, ESBL inhibitor 0 mcg): (R)
Interpretation of zone as per CLSI recommendations (E. coli M-138; [18]): (R)
Interpretation of zone as per CLSI recommendations (E. coli M-138; Table 6, ESBL inhibitor 0 mcg): (R)
Interpretation of zone as per CLSI recommendations (E. coli M-138; [19]): (R)
Zone of Inhibition (E. coli M-138; with Tazobactam 10 mcg): 15.5 mm
Zone of Inhibition (E. coli 7MP [5]; [15]): Nil
Interpretation of zone as per CLSI recommendations (E. coli 7MP [5]; Table 5, ESBL inhibitor 0 mcg): (R)
Interpretation of zone as per CLSI recommendations (E. coli 7MP [5]; [18]): (R)
Interpretation of zone as per CLSI recommendations (E. coli 7MP [5]; Table 6, ESBL inhibitor 0 mcg): (R)
Interpretation of zone as per CLSI recommendations (E. coli 7MP [5]; [19]): (R)
Zone of Inhibition (E. coli 7MP [5]; with Tazobactam 10 mcg): 13.5 mm
Zone of Inhibition (E. coli B-89 [6]; [15]): Nil
Interpretation of zone as per CLSI recommendations (E. coli B-89 [6]; Table 5, ESBL inhibitor 0 mcg): (R)
Interpretation of zone as per CLSI recommendations (E. coli B-89 [6]; [18]): (R)
Interpretation of zone as per CLSI recommendations (E. coli B-89 [6]; Table 6, ESBL inhibitor 0 mcg): (R)
Interpretation of zone as per CLSI recommendations (E. coli B-89 [6]; [19]): (R)
Zone of Inhibition (E. coli B-89 [6]; with Tazobactam 10 mcg): 15 mm
